Measured values as given in patent US8906866B2, “Antibiotic compositions for the treatment of gram negative infections” (priority 2010, dated 2014).

Assays:
P. aeruginosa #44 [1] = experiment: MICs for P. aeruginosa #44 in the presence of surfactant; type: cell-based, Pseudomonas aeruginosa; parameters: key: A: a MIC value measurement that is the same as that observed for polymyxin B; a MIC value measured that is lower than the comparable value observed for polymxin B; a MIC value measured that is higher than the comparable value observed for polymyxin B; details: relative to polymyxin B
Experimental: (§1) Antibacterial potency can be assessed by broth microdilution according to CLSI guidelines, plates can be incubated at 37° C., and aeration (rotation at 200 rpm) can be employed. In some assays, surfactant (Survanta, Abbott Laboratories) can be added to give a final concentration of 1, 10 and 40% in caMHB. Native polymyxin A, polymyxin B and the comparator compound of Formula II (polymyxin B decapeptide with an o-chlorophenyl urea tail) were included for comparison.

P. aeruginosa 44 [2] = experiment: Neutropenic mouse lung infection model; type: in vivo
Experimental: Compound of Formula (Ia) was tested in a murine thigh model. For the thigh model, female CD-1 mice were rendered neutropenic by IP injection on days −4 and −1 with 150 and 100 mg/kg cyclophosphamide, respectively. On day 0 mice were infected with 1×10^7 colony-forming units (cfu) of A. baumannii 1570 in one thigh muscle, and then administered compound SC in a dose ranging from 2 to 12 mg/kg at 1 and 6 hours post-infection.
The mouse lung model was run in the same manner as the thigh infection model, except that mice were infected IN with 1×10^7 cfu of P. aeruginosa 44 on day 0. Doses administered in the lung study ranged from 8 to 20 mg/kg. The ED−3log10 was based on cfu determination from the lung tissue 24 hours post-infection.

E. coli [3] = experiment: MIC50/90 against small panels (n = 35); type: cell-based, Escherichia coli; parameters: key: A: a MIC value measurement that is the same as that observed for polymyxin B; a MIC value measured that is lower than the comparable value observed for polymxin B; a MIC value measured that is higher than the comparable value observed for polymyxin B; details: small panel n = 35, relative to polymyxin B
Experimental: as §1

A. baumannii 1570 = experiment: MIC against the primary screening panel (broth microdilution); type: cell-based, Acinetobacter baumannii; parameters: key: A: a MIC value measurement that is the same as that observed for polymyxin B; a MIC value measured that is lower than the comparable value observed for polymxin B; a MIC value measured that is higher than the comparable value observed for polymyxin B; details: relative to polymyxin B
Experimental: as §1

K. pneumoniae = experiment: MIC50/90 against small panels (n = 35); type: cell-based, Klebsiella pneumoniae; parameters: key: A: a MIC value measurement that is the same as that observed for polymyxin B; a MIC value measured that is lower than the comparable value observed for polymxin B; a MIC value measured that is higher than the comparable value observed for polymyxin B; details: small panel n = 35, relative to polymyxin B
Experimental: as §1

A. baum = experiment: MIC50 and MIC90, CLSI broth microdilution, panel of Gram negative strains; type: cell-based, Acinetobacter baumannii; parameters: key: A: a measured MIC value equal to that of polymyxin B; a measured MIC value less than the corresponding MIC value measured for polymyxin B; a measured MIC value greater than the corresponding MIC value measured for polymyxin B; details: relative to polymyxin B; some strains multi-drug resistant
Experimental: (§2) MIC testing can be performed according to Clinical and Laboratory Standards Institute (CLSI) M7-A7 (2006) broth microdilution methods. Unless otherwise indicated, MIC values are provided in units of micrograms per milliliter.
(§3) One day prior to testing, individual colonies were isolated by streaking onto rich, non-selective Tryptic Soy agar with 5% lysed sheeps blood (TSAB) with incubation at 35-37° C. for 18-24 hours.
(§4) Cultures were prepared by touching 3-5 colonies into 3 mL of cation-adjusted Mueller Hinton Broth (caMHB) in a 14-mL tube (caMHB was prepared and sterilized according to manufacturer's specifications).
(§5) OD600 of growing cultures was measured and adjusted to approximately 10^5 colony forming units per mL (CFU/mL) in caMHB for MIC inoculation (approximately OD600 0.001).
(§6) Diluted cultures were used to inoculate 50 μL per well in broth microdilution assays (final volume 100 μl per well; compounds were prepared in two-fold dilutions).
(§7) Plates were incubated 16-20 hours at 37° C., with shaking at 200 rpm.
(§8) OD600 was determined for all wells. Growth was defined as OD600>0.1. MICs were defined as the lowest concentration producing no visible turbidity (OD600<0.1).

P. aeruginosa = experiment: MIC50/90 against small panels (n = 35); type: cell-based, Pseudomonas aeruginosa; parameters: key: A: a MIC value measurement that is the same as that observed for polymyxin B; a MIC value measured that is lower than the comparable value observed for polymxin B; a MIC value measured that is higher than the comparable value observed for polymyxin B; details: small panel n = 35, relative to polymyxin B
Experimental: as §1

P. aeruginosa #44 [4] = experiment: MIC against P. aeruginosa #44 in polystyrene plate; type: cell-based, Pseudomonas aeruginosa; details: range of repeated tests
Experimental: P. aeruginosa #44 were grown in cation adjusted Mueller Hinton Broth (caMHB) (catalog#B12322; Fisher Scientific, Pittsburgh, Pa.) at 37° C. MIC testing was performed according to Clinical and Laboratory Standards Institute [CLSI, formerly National Committee for Clinical Laboratory Standards (NCCLS), Wayne, Pa.] guidelines for broth microdilution. […]

P. aeruginosa 44 [5] = experiment: MIC against the primary screening panel (broth microdilution); type: cell-based, Pseudomonas aeruginosa; parameters: key: A: a MIC value measurement that is the same as that observed for polymyxin B; a MIC value measured that is lower than the comparable value observed for polymxin B; a MIC value measured that is higher than the comparable value observed for polymyxin B; details: relative to polymyxin B
Experimental: as §1

E. coli 1527 = experiment: as above; type: cell-based, Escherichia coli; parameters: key: A: a MIC value measurement that is the same as that observed for polymyxin B; a MIC value measured that is lower than the comparable value observed for polymxin B; a MIC value measured that is higher than the comparable value observed for polymyxin B; details: relative to polymyxin B
Experimental: as §1

K. pneumoniae 933 = experiment: as above; type: cell-based, Klebsiella pneumoniae; parameters: key: A: a MIC value measurement that is the same as that observed for polymyxin B; a MIC value measured that is lower than the comparable value observed for polymxin B; a MIC value measured that is higher than the comparable value observed for polymyxin B; details: relative to polymyxin B
Experimental: as §1

[6] = Acute toxicity testing in rats; type: in vivo, Sprague-Dawley rat; details: 1 mg/kg i.v.
Experimental: One female Sprague-Dawley rat was administered a 1 mg/kg dose of the test Compound 5. Clinical observations were taken immediately following the administration of compound and at 0.5, 1, 2 and 4 hours post-dose.

[7] = tested on: Gram negative bacterial strains; experiment: Potency and spectrum against a panel of Gram negative bacterial strains; type: cell-based
Source text: The potency and spectrum of Compound 5 was studied using a panel of Gram negative bacterial strains.
as §2

E. coli [8] = experiment: MIC50 and MIC90, CLSI broth microdilution, panel of Gram negative strains; type: cell-based, Escherichia coli; parameters: key: A: a measured MIC value equal to that of polymyxin B; a measured MIC value less than the corresponding MIC value measured for polymyxin B; a measured MIC value greater than the corresponding MIC value measured for polymyxin B; details: relative to polymyxin B; some strains multi-drug resistant
Experimental: as §2, §3, §4, §5, §6, §7, §8

P. aeru = experiment: as above; type: cell-based, Pseudomonas aeruginosa; parameters: key: A: a measured MIC value equal to that of polymyxin B; a measured MIC value less than the corresponding MIC value measured for polymyxin B; a measured MIC value greater than the corresponding MIC value measured for polymyxin B; details: relative to polymyxin B; some strains multi-drug resistant
Experimental: as §2, §3, §4, §5, §6, §7, §8

K. pneu = experiment: as above; type: cell-based, Klebsiella pneumoniae; parameters: key: A: a measured MIC value equal to that of polymyxin B; a measured MIC value less than the corresponding MIC value measured for polymyxin B; a measured MIC value greater than the corresponding MIC value measured for polymyxin B; details: relative to polymyxin B; some strains multi-drug resistant
Experimental: as §2, §3, §4, §5, §6, §7, §8

A. baumannii = experiment: MIC50/90 against small panels (n = 35); type: cell-based, Acinetobacter baumannii; parameters: key: A: a MIC value measurement that is the same as that observed for polymyxin B; a MIC value measured that is lower than the comparable value observed for polymxin B; a MIC value measured that is higher than the comparable value observed for polymyxin B; details: small panel n = 35, relative to polymyxin B
Experimental: as §1

CC(C)C[C@H]1NC(=O)[C@H](CCN)NC(=O)[C@@H](NC(=O)[C@@H](CCN)NC(=O)[C@@H](NC(=O)[C@H](CCN)NC(=O)[C@H]2C[C@@H]2c2ccccc2)C(C)O)CCNC(=O)[C@H](C(C)O)NC(=O)[C@H](CCN)NC(=O)[C@H](CCN)NC(=O)[C@H](C(C)O)NC1=O (single isomer, unassigned) [Compound 5]
MIC P. aeruginosa #44, 0% surfactant (P. aeruginosa #44 [1]; 0% surfactant): C | MIC P. aeruginosa #44, 10% surfactant (P. aeruginosa #44 [1]; 10% surfactant): B | MIC P. aeruginosa #44, 40% surfactant (P. aeruginosa #44 [1]; 40% surfactant): B | Lungs cleared within one log10 of limit of detection (P. aeruginosa 44 [2]; 8 through 20 mg/kg dose levels): Lungs cleared within one log10 of limit of detection | ED−3log10 (P. aeruginosa 44 [2]; neutropenic mouse lung, P. aeruginosa 44, SC, BID×1 d, cfu 24 hours post-infection): 6.35 mg/kg | E. coli MIC50 (E. coli [3]): C | E. coli MIC90 (E. coli [3]): A | MIC A. baumannii 1570 (A. baumannii 1570): C | K. pneumoniae MIC50 (K. pneumoniae): C | K. pneumoniae MIC90 (K. pneumoniae): C | A. baum MIC 50 (A. baum): C | A. baum MIC 90 (A. baum): C | P. aeruginosa MIC50 (P. aeruginosa): A | P. aeruginosa MIC90 (P. aeruginosa): C | MIC against P. aeruginosa #44 In polystyrene plate (P. aeruginosa #44 [4]): 1-2 micrograms/ml | MIC P. aeruginosa 44 (P. aeruginosa 44 [5]): C | MIC E. coli 1527 (E. coli 1527): A | MIC K. pneumoniae 933 (K. pneumoniae 933): C | time by which rat had no clinical signs ([6]; 1 female Sprague-Dawley rat): ≤ 1 h | Acute (anaphylactoid) observations ([6]; female Sprague-Dawley rat): anaphylactoid response was observed | activity against E. coli, K. pneumonia, P. Aeruginosa and A. baumanni isolates [7]: active | activity against multi-drug resistant strains [7]: active against multi-drug resistant strains | E. coli MIC50 (E. coli [8]): C | E. coli MIC90 (E. coli [8]): A | P. aeru MIC 50 (P. aeru): A | P. aeru MIC 90 (P. aeru): C | K. pneu MIC 50 (K. pneu): C | K. pneu MIC 90 (K. pneu): C | A. baumannii MIC50 (A. baumannii): C | A. baumannii MIC90 (A. baumannii): C
